Data taken from ChEMBL document CHEMBL5365457, “Selective HDAC3 Inhibitors with Potent In Vivo Antitumor Efficacy against Triple-Negative Breast Cancer” (J Med Chem, 2023).
The source made the active and inactive calls. No cut-off for these calls is given here.

Legend:
[1] = tested on: MCF7; test: Cytotoxicity against human MCF7 cells assessed as inhibition of cell growth incubated for 72 hrs by MTT assay; type: functional, cell-based; settings: MCF7, 72 h
[2] = tested on: 4T1; test: Cytotoxicity against mouse 4T1 cells assessed as inhibition of cell growth incubated for 72 hrs by MTT assay; type: functional, cell-based; settings: 4T1, 72 h
[3] = tested on: MDA-MB-231; test: Cytotoxicity against human MDA-MB-231 cells assessed as inhibition of cell growth incubated for 72 hrs by MTT assay; type: functional, cell-based; settings: MDA-MB-231, 72 h
[4] = tested on: MDA-MB-453; test: Cytotoxicity against human MDA-MB-453 cells assessed as inhibition of cell growth incubated for 72 hrs by MTT assay; type: functional, cell-based; settings: MDA-MB-453, 72 h
[5] = Cytotoxicity against human MCF-10A cells assessed as inhibition of cell growth incubated for 72 hrs by MTT assay; type: toxicity, cell-based
[6] = Cytotoxicity against human HCEC cells assessed as inhibition of cell growth incubated for 72 hrs by MTT assay; type: toxicity, cell-based; settings: human, HCEC cells
[7] = Half life in Wistar rat at 15 mg/kg, ip measured upto 24 hrs by HPLC analysis; type: ADME, organism-based; settings: in vivo
[8] = Tmax in Wistar rat at 15 mg/kg, ip measured upto 24 hrs by HPLC analysis; type: ADME, organism-based; settings: in vivo
[9] = Cmax in Wistar rat at 15 mg/kg, ip measured upto 24 hrs by HPLC analysis; type: ADME, organism-based; set-up: dose 15 mg/kg, time < 24 hrs, route ip; settings: in vivo
[10] = AUC (0 to t) in Wistar rat at 15 mg/kg, ip measured upto 24 hrs by HPLC analysis; type: ADME, organism-based; set-up: dose 15 mg/kg, time < 24 hrs, route ip; settings: in vivo
[11] = AUC (0 to infinity) in Wistar rat at 15 mg/kg, ip measured upto 24 hrs by HPLC analysis; type: ADME, organism-based; set-up: dose 15 mg/kg, time < 24 hrs, route ip; settings: in vivo
[12] = MRT (0 to infinity) in Wistar rat at 15 mg/kg, ip measured upto 24 hrs by HPLC analysis; type: ADME, organism-based; settings: in vivo
[13] = Apparent volume of distribution in Wistar rat at 15 mg/kg, ip measured upto 24 hrs by HPLC analysis; type: ADME, organism-based; settings: in vivo
[14] = Apparent oral clearance in Wistar rat at 15 mg/kg, ip measured upto 24 hrs by HPLC analysis; type: ADME, organism-based; settings: in vivo
[15] = AUMC (0 to infinity) in Wistar rat at 15 mg/kg, ip measured upto 24 hrs by HPLC analysis; type: ADME, organism-based; settings: in vivo
[16] = tested on: 4T1; test: Induction of apoptosis in mouse 4T1 cells at 1.54 uM incubated for 72 hrs by annexin/PI staining based flow cytometry analysis (reference value: 1.35%); type: functional
[17] = tested on: 4T1; test: Cell cycle arrest in mouse 4T1 cells assessed as accumulation of cells at G1 phase at 1.54 uM incubated for 72 hrs by flow cytometry; type: functional
[18] = tested on: 4T1; test: Cell cycle arrest in mouse 4T1 cells assessed as accumulation of cells at G1 phase at 7.72 uM incubated for 72 hrs by flow cytometry; type: functional
[19] = tested on: 4T1; test: Cell cycle arrest in mouse 4T1 cells assessed as accumulation of cells at G1 phase at 38.6 uM incubated for 72 hrs by flow cytometry; type: functional
[20] = tested on: MDA-MB-231; test: Cytotoxicity against wild type human MDA-MB-231 cells assessed as reduction in cell viability incubated for 72 hrs by MTT assay; type: functional, cell-based; settings: MDA-MB-231, 72 h
[21] = Cytotoxicity against Oxaliplatin-resistant human MDA-MB-231 cell assessed as reduction in cell viability incubated for 72 hrs by MTT assay; type: functional, cell-based; settings: Oxaliplatin-resistant MDA-MB-231 cell
[22] = tested on: 4T1; test: Antitumor activity against mouse 4T1 cells implanted in BALB/c mouse assessed as reduction in tumor volume at 15 mg/kg, ip administered 5 times a week for 21 days (reference value: 52.25 +/-13.24 mm3); type: functional; settings: time 21 day
[23] = tested on: 4T1; test: Antitumor activity against mouse 4T1 cells implanted in BALB/c mouse assessed as reduction in tumor volume at 5 mg/kg, ip administered 5 times a week for 21 days (reference value: 51.91 +/-7.45 mm3); type: functional; settings: time 21 day
[24] = tested on: 4T1; test: Antitumor activity against mouse 4T1 cells implanted in BALB/c mouse assessed as reduction in tumor weight at 15 mg/kg, ip administered 5 times a week for 21 days; type: functional; settings: time 21 day
[25] = tested on: 4T1; test: Antitumor activity against mouse 4T1 cells implanted in BALB/c mouse assessed as tumor growth inhibition at 15 mg/kg, ip measured on day 7; type: functional; settings: 4T1, 168 h, time 7 day, read-out: TGI
[26] = tested on: 4T1; test: Antitumor activity against mouse 4T1 cells implanted in BALB/c mouse assessed as tumor growth inhibition at 15 mg/kg, ip measured on day 14; type: functional; settings: 4T1, 336 h, time 14 day, read-out: TGI
[27] = tested on: 4T1; test: Antitumor activity against mouse 4T1 cells implanted in BALB/c mouse assessed as tumor growth inhibition at 15 mg/kg, ip measured on day 21; type: functional; settings: 4T1, 504 h, time 21 day, read-out: TGI
[28] = tested on: 4T1; test: Antitumor activity against mouse 4T1 cells implanted in BALB/c mouse assessed as increase in apoptosis in tumor tissue at 5 to 15 mg/kg, ip by TUNEL staining based microscopic analysis; type: functional, organism-based; settings: dose 5-15 mg/kg
[29] = tested on: 4T1; test: Antitumor activity against mouse 4T1 cells implanted in BALB/c mouse assessed as reduction in Ki-67 expression in tumor tissue at 5 to 15 mg/kg, ip measured for 21 days by fluorescence based microscopic analysis; type: functional, organism-based; settings: dose 5-15 mg/kg, time 21.0 day
[30] = Toxicity in BALB/c mouse implanted with mouse 4T1 cells assessed as heart damage at 5 to 15 mg/kg, ip measured after 21 days by H and E staining based assay; type: organism-based; settings: in vivo, 504 h, dose 5-15 mg/kg, time 21 day
[31] = Toxicity in BALB/c mouse implanted with mouse 4T1 cells assessed as liver damage at 5 to 15 mg/kg, ip measured after 21 days by H and E staining based assay; type: organism-based; settings: in vivo, 504 h, dose 5-15 mg/kg, time 21 day
[32] = Toxicity in BALB/c mouse implanted with mouse 4T1 cells assessed as kidney damage at 5 to 15 mg/kg, ip measured after 21 days by H and E staining based assay; type: organism-based; settings: in vivo, 504 h, dose 5-15 mg/kg, time 21 day
[33] = Toxicity in BALB/c mouse implanted with mouse 4T1 cells assessed as spleen damage at 5 to 15 mg/kg, ip measured after 21 days by H and E staining based assay; type: organism-based; settings: in vivo, 504 h, dose 5-15 mg/kg, time 21 day
[34] = tested on: 4T1; test: Antitumor activity against mouse 4T1 cells implanted in BALB/c mouse assessed as increase in number of lung nodules at 15 mg/kg, ip measured for 7 days by H and E staining based assay; type: functional, organism-based; settings: time 7.0 day

- half-life [7]: 5.18 h
- Tmax [8]: 2 h
- Cmax [9]: 5240 ng/mL
- AUC(0-t) at 24 h [10]: 14500 ng·h/mL
- AUC(0-inf) [11]: 14700 ng·h/mL
- MRT inf [12]: 3.66 h
- Vz/F [13]: 7.65 (mg/kg)/(ug/ml)
- CL/F [14]: 1.03 (mg/kg)/(ug/ml).hr
- AUMC [15]: 53.64 ug/ml.hr^2
SMILES: CCCCNNC(=O)c1ccc(Br)cc1
- IC50 [1]: 15.4 µM
- IC50 [2]: 7.72 µM
- IC50 [3]: 24.7 µM
- IC50 [4]: 25.3 µM
- IC50 at 72 h [5]: 99.3 µM
- IC50 at 72 h [6]: 95.4 µM
- Activity [16]: 30.4%
- Activity [17]: 50.4%
- Activity [18]: 41.4%
- Activity [19]: 52.3%
- IC50 [20]: 24.7 µM
- IC50 [21]: 27.4 µM
- Activity [22]: 520.32 mm3
- Activity [23]: 1005.32 mm3
- Activity [24]: 0.29 g
- inhibition in vivo at 15 mg/kg [25]: 55.6%
- inhibition in vivo at 15 mg/kg [26]: 38.4%
- inhibition in vivo at 15 mg/kg [27]: 39.5%
- Activity [28]: Active
- Activity [29]: Active
- Activity [30]: Non-Toxic
- Activity [31]: Non-Toxic
- Activity [32]: Non-Toxic
- Activity [33]: Non-Toxic
- Activity [34]: inactive
